Data on 1 compound can be found in patent publication US9815788B2, “Anti-angiogenic compounds” (University College Dublin National University of Ireland, …, priority 2012, dated 2017).

SMILES strings stand for the structures.

The target of experiment [1] is T1, cysteinyl-leukotriene CysLT1 (Cavia porcellus, UniProt Q2NNR5).
T1 construct: a lung strip obtained from Duncan Hartley derived male or female guinea pigs; from tissue; host or cells: guinea pig lung strip
T1 sequence (Q2NNR5 1-340): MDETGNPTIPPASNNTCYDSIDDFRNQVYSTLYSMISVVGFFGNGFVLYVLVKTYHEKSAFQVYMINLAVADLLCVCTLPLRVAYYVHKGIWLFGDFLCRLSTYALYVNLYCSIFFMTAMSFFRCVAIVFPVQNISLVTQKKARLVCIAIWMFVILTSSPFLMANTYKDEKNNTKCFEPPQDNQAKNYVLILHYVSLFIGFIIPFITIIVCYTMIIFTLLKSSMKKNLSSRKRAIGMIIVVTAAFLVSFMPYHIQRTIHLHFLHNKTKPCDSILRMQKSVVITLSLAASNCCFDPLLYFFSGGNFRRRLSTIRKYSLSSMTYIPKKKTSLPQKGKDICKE
In words: Ex vivo cysteinyl leukotriene guinea pig lung strip assay. Particulars: 30 μM, 3 nM leukotriene D4. The method, then: (§1) FIG. 15 tables the percentage inhibition by compounds 11B_CC11_HCl and 11B_CC16_HCl on the cysteinyl leukotriene pathway in in vitro and ex vivo assays. […] For in vitro cysteinyl leukotriene cell-based assays 11B_CC11_HCl and 11B_CC16_HCl, were tested at 30 μM concentration in duplicate, in a single experiment for their ability to inhibit the calcium mobilisation response of the CysLT1 receptor to 0.1 nM leukotriene D4 in CHO cells over-expressing the CysLT1 receptor or the calcium mobilisation response of the CysLT2 receptor to 30 nM of leukotriene C4 in HEK 293 cells over expressing the CysLT2 receptor.
(§2) Target profiling using Cerep and Eurofins/Panlabs profiling screens was undertaken using 11B_CC11_HCl and 11B_CC16_HCl in order to investigate the mechanism of action. […] Test substance (30 LM)-induced isometrically recorded contraction by 50 percent or more within 5 min, relative to control 3 nM leukotriene D4 response, indicates possible cysteinyl-leukotriene LT1 receptor agonist activity. […] To measure inhibition of cysteinyl leukotriene 1 (CysLT1 [LTD4]) and cysteinyl leukotriene 2 (CysLT2 [LTC4]) receptor activity, calcium mobilisation was measured using Fluor-3-loaded CHO cells (for cysLT1 assays) or HEK-293 cells (for CysLT2 assays) which stably express either the CysLT1 or CysLT2 receptors. […]

In a further experiment the target is T2, CysLT1 receptor (Homo sapiens, UniProt Q9Y271).
T2 construct: host or cells: CHO cells
T2 sequence (Q9Y271 1-337): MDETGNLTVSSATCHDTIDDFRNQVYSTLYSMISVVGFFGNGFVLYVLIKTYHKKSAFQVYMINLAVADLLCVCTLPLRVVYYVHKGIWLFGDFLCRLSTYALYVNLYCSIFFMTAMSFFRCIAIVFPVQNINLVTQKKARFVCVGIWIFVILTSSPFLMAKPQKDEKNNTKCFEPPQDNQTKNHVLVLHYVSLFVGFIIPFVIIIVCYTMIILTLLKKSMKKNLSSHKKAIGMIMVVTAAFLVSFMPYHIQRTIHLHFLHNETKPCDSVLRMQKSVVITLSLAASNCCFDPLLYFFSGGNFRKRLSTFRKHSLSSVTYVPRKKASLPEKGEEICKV
In words: CysLT1 calcium mobilisation assay in CHO cells. Type of experiment: cell-based. Particulars: 0.1 nM LTD4, CHO cells expressing CysLT1, read-out: inhibition of calcium mobilisation (CysLT1 antagonism). The method, then:
as §1, §2
(In general: Calcium assays in cells follow changes in intracellular calcium, usually with a dye or a luminescent sensor.)

A further experiment deals with T3, CysLT2 receptor (Homo sapiens, UniProt Q9NS75).
T3 construct: host or cells: HEK 293 cells
T3 sequence (Q9NS75 1-346): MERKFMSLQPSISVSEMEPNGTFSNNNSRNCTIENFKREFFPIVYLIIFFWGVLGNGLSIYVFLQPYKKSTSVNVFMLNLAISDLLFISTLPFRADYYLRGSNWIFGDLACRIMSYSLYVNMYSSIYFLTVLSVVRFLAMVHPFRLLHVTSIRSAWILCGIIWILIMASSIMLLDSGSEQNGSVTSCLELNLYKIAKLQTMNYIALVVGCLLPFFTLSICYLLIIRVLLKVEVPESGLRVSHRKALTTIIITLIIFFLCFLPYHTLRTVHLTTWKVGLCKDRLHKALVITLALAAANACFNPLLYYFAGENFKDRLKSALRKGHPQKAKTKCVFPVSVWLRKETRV
Kind of experiment: CysLT2 calcium mobilisation assay in HEK 293 cells. Type of experiment: cell-based. Conditions: HEK293, 30 nM LTC4, HEK-293 cells expressing CysLT2, read-out: inhibition of calcium mobilisation (CysLT2 antagonism). The method, then: as §1, §2

Usually inhibition stands for the drop in the measured response relative to a control, in per cent. Turning to `Cl.Oc1ccccc1C#Cc1ccc2ccccc2n1` [Compound 11B_CC16_HCl, 2-Quinolin-2-yl-ylethynyl-phenol HCl salt], the “reduction of the leukotriene D4-induced contractile response” value in experiment [1] amounted to 100%. For the same compound, the inhibition at 30 µM on CysLT1 receptor turned out to be 137%; on CysLT2 receptor it was 48%.
